In US20240366624A1, “METHODS AND COMPOSITIONS FOR TREATING THROMBOTIC DISEASE” (Washington University, priority 2023, published 2024):

Columns and labels:
[1] = tested on: mouse platelets; assay: Flow cytometry of P-selectin exposure and αIIbβ3 integrin activation, mouse platelets; format: cell-based; settings: 3 to 10 μM, mouse platelets, thrombin or CRP
Protocol: FIG. 10(A-E) is an exemplary embodiment of 15E9 not affecting platelet activation and aggregation in accordance with the present disclosure. Mouse platelets were treated with 0.02-0.03 (FIG. 10A P-selectin, FIG. 10B aIIbβ3) or 0.025 U/ml thrombin (FIG. 10C) in the presence of 10 μg/ml mouse IgG2a (IgG2a) or a blocking anti-ERO1α antibody (15E9). Flow cytometry (FIG. 10(A-B)) and aggregation (FIG. 10C) assays were performed. FIG. 10D: Human platelets were treated with 0.025 U/ml thrombin in the presence of mouse IgG2a (mIgG2a) or 10 μg/ml 15E9 and 16B6, followed by measuring aggregation. […] P values determined by unpaired Student's t-test (vs. mIgG1).
FIG. 18(A-R) is an exemplary embodiment of novel small-molecule inhibitors recapitulating the defect in Ero1α (endoplasmic reticulum oxidoreductase 1a)-null platelets in accordance with the present disclosure. […] After incubation with a different concentration of B12-5, the specific interaction between B12-5 and ERO1α was measured by subtracting the nonspecific binding. The KD value was calculated from the Kon and Koff values. […] P values determined by ANOVA and Dunnett test (FIG. 18(B-E), FIG. 18(1-L), and FIG. 18(O-R) [for B12-5]) or Student t test (FIG. 18M, FIG. 18N, and FIG. 18(O-R) [for BAPTA (1,2-bis(o-aminophenoxy)ethane-N,N,N′,N′-tetraacetic acid)]). […]

[2] = target: T1, ERO1α (Homo sapiens, UniProt Q96HE7); assay: Bio-layer interferometry, B12-5 on biotinylated ERO1α biosensor; settings: read-out: KD, binding to ERO1α
T1 sequence (Q96HE7 24-468): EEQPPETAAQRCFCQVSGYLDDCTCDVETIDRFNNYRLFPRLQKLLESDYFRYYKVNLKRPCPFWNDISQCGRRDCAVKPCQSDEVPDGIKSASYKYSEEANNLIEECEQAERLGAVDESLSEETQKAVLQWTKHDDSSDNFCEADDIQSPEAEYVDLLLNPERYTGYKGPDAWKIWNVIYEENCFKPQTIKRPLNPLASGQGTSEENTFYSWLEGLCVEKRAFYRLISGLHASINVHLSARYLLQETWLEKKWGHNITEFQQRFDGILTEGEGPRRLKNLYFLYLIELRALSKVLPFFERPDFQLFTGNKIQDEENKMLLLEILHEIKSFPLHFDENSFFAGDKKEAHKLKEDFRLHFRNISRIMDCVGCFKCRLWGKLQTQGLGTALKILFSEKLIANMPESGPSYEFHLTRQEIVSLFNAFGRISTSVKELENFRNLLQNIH
Description: FIG. 18(A-R) is an exemplary embodiment of novel small-molecule inhibitors recapitulating the defect in Ero1α (endoplasmic reticulum oxidoreductase 1a)-null platelets in accordance with the present disclosure. FIG. 18A: The structure of B12 and its inhibitory effect on ERO1α activity. FIG. 18(B-E): The inhibitory effect of B12 on P-selectin exposure and αIIbβ3 integrin activation in (FIG. 18B and FIG. 18C) mouse and (FIG. 18D and FIG. 18E) human platelets. FIG. 18F: The structure of B12-5 and its inhibitory effect on ERO1α activity. FIG. 18G: A docking model of B12-5-ERO1α (3AHQ) and flavin adenine dinucleotide (FAD)-ERO1α complex. There are pi-sulfur interactions of the phenothiazine head group (B112-5) or a tricyclic ring (FAD) with Met389 and Cys397. Also, there are H bond interactions between the tail/alkyl group and His255, Asn259, and Arg287. […] After incubation with a different concentration of B12-5, the specific interaction between B12-5 and ERO1α was measured by subtracting the nonspecific binding. The KD value was calculated from the Kon and Koff values. […] P values determined by ANOVA and Dunnett test (FIG. 18(B-E), FIG. 18(1-L), and FIG. 18(O-R) [for B12-5]) or Student t test (FIG. 18M, FIG. 18N, and FIG. 18(O-R) [for BAPTA (1,2-bis(o-aminophenoxy)ethane-N,N,N′,N′-tetraacetic acid)]). […]

[3] = tested on: human platelets; assay: Ca2+ mobilization (FLIPR), human platelets; format: cell-based; settings: thrombin or A23187
Protocol: Ca^2+ mobilization was measured as described previously. WT control and Ero1α-null platelets (1×10^8/mL) were suspended in HEPES-Tyrode buffer, pH 7.4. Cells were incubated with a Ca^2+ dye (FLIPR Ca^2+5 assay kit; Molecular Devices) for 30 minutes at 37° C. in the dark, followed by stimulation with thrombin (0.1 U/mL), A23187 (2 μM) or thapsigargin (10-20 μM). After measuring Ca^2+ release, 1 mM CaCl2) was immediately added to assess Ca^2+ influx. In other experiments, Ca^2+ dye-labeled human and WT mouse platelets were incubated with a vehicle or an inhibitor for 10 minutes at 37° C. Cytosolic Ca^2+ levels were measured using a FlexStation3 microplate reader with an excitation wavelength of 485 nm and an emission wavelength of 525 nm. Ca^2+ mobilization was quantified by the area under the curve and expressed as a relative fluorescence unit.

[4] = Water solubility; format: physicochemical

O=C(CSc1nc(O)cc(O)n1)N1c2ccccc2Sc2ccccc21 [B12-5]
P-selectin exposure and αIIbβ3 activation [1]: significantly reduced
Kd [2]: 12.9 ± 3.8 µM
Ca2+ release and influx [3]: dose dependently inhibited
water solubility [4]: poor
